Structures can show the parent of a compound that is named as a salt. Where two headings read alike, the source gives them in different places. Values belong to the compound of their own block, whether it stands above or below them.
Target: PAI-1 (Homo sapiens, UniProt P05121)
Experiment: biochemical
Conditions: for inhibition at 20 µM: 20 μM (third part of Table 1); for IC50: PAI chromogenic substrate assay, read-out: IC50
[1] = 6.25 μM, read-out: Degree of inhibition in PAI chromogenic substrate assay
[2] = 12.5 μM, read-out: Degree of inhibition in PAI chromogenic substrate assay
[3] = 25 μM, read-out: Degree of inhibition in PAI chromogenic substrate assay
[4] = 50 μM, read-out: Degree of inhibition in PAI chromogenic substrate assay
[5] = 100 μM, read-out: Degree of inhibition in PAI chromogenic substrate assay
[6] = read-out: Degree of inhibition in PAI chromogenic substrate assay
[7] = 50 μM (third part of Table 1), read-out: Degree of inhibition in PAI chromogenic substrate assay
[8] = 100 μM (third part of Table 1), read-out: Degree of inhibition in PAI chromogenic substrate assay

Sequence of PAI-1 (P05121 24-402): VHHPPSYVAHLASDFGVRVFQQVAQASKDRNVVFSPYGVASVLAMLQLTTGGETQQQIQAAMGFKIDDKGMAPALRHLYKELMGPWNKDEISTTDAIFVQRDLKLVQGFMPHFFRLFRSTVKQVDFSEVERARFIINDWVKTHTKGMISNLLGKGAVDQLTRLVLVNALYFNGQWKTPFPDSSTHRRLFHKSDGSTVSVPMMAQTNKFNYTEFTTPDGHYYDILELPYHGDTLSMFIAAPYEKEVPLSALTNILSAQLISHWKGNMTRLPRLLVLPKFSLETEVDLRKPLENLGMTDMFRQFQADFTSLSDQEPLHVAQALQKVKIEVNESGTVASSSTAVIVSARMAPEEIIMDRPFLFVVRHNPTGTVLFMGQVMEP

IC50: 17 µM
Structure (SMILES): CN(C)CCCOc1ccc(/C=c2\[nH]c(=O)/c(=C/c3ccc(N)cc3)[nH]c2=O)cc1 [Compound 5260]

IC50: 1.8 µM
Structure (SMILES): CN(C)CCCOc1ccc(/C=c2\[nH]c(=O)/c(=C/c3ccc(C#N)cc3)[nH]c2=O)cc1 [Compound 5245]

inhibition at 3.75 µM (3.75 μM, read-out: Degree of inhibition in PAI chromogenic substrate assay): 1% | inhibition at 7.5 µM (7.5 μM, read-out: Degree of inhibition in PAI chromogenic substrate assay): 11% | inhibition at 15 µM (15 μM, read-out: Degree of inhibition in PAI chromogenic substrate assay): 41% | inhibition at 30 µM (30 μM, read-out: Degree of inhibition in PAI chromogenic substrate assay): 49% | inhibition at 60 µM (60 μM, read-out: Degree of inhibition in PAI chromogenic substrate assay): 48%
Structure (SMILES): CN(C)CCOc1ccc(/C=c2\[nH]c(=O)/c(=C/c3ccccc3)[nH]c2=O)cc1 [Compound 1961, (3Z,6Z)-3-Benzylidene-6-(4-(2-dimethylaminoethoxy)benzylidene)-2,5-piperazinedione]

inhibition at 20 µM [6]: 10% | inhibition at 100 µM [8]: 65% | IC50: 100 µM
Structure (SMILES): CC(=O)Nc1cccc(/C=c2\[nH]c(=O)/c(=C/c3ccc(OCCCN(C)C)cc3)[nH]c2=O)c1 [Compound 5256, (3Z,6Z)-3-(3-Acetamidobenzylidene)-6-(4-(3-dimethylaminopropoxy)benzylidene)-2,5-piperazinedione]

inhibition at 20 µM [6]: 47% | inhibition at 100 µM [8]: 50% | IC50: 2.5 µM
Structure (SMILES): CN(C)CCCOc1ccc(/C=c2\[nH]c(=O)/c(=C/c3ccc(Cl)cc3)[nH]c2=O)cc1 [Compound 5233]

IC50: 1.4 µM
Structure (SMILES): CN(C)CCCOc1ccc(/C=c2\[nH]c(=O)/c(=C/c3cccc([N+](=O)[O-])c3)[nH]c2=O)cc1 [Compound 5209, (3Z,6Z)-6-(4-(3-Dimethylaminopropoxy)benzylidene)-3-(3-nitrobenzylidene)-2,5-piperazinedione]

Degree of inhibition in PAI chromogenic substrate assay (6.25 μM): 31% | Degree of inhibition in PAI chromogenic substrate assay (12.5 μM): 65% | Degree of inhibition in PAI chromogenic substrate assay (25 μM): 69% | Degree of inhibition in PAI chromogenic substrate assay (50 μM): 69% | Degree of inhibition in PAI chromogenic substrate assay (100 μM): 61%
Structure (SMILES): CN(C)CCOc1ccc(/C=c2\[nH]c(=O)/c(=C/c3ccccc3)[nH]c2=O)cc1 [Compound 1956]

inhibition at 20 µM [6]: 10% | inhibition at 100 µM [8]: 58% | IC50: 100 µM
Structure (SMILES): Cc1cccc(/C=c2\[nH]c(=O)/c(=C/c3ccc(OCCCN(C)C)cc3)[nH]c2=O)c1 [Compound 5187, (3Z,6Z)-6-(4-(3-Dimethylaminopropoxy)benzylidene)-3-(3-methylbenzylidene)-2,5-piperazinedione]

inhibition at 20 µM [6]: 15%
Structure (SMILES): CN(C)CCCOc1ccc(/C=c2\[nH]c(=O)/c(=C/c3ccc(C#N)cc3)[nH]c2=O)cc1 [Compound 5348]

inhibition at 100 µM [8]: 10%
Structure (SMILES): CN(C)CCCOc1ccc(/C=c2\[nH]c(=O)/c(=C/c3cccc(C#N)c3)[nH]c2=O)cc1 [Compound 5232, (3Z,6Z)-3-(3-Cyanobenzylidene)-6-(4-(3-dimethylaminopropoxy)benzylidene)-2,5-piperazinedione]

IC50: 6.5 µM
Structure (SMILES): CN(C)CCCOc1ccc(/C=c2\[nH]c(=O)/c(=C/c3ccc(F)cc3)[nH]c2=O)cc1 [Compound 5365, (3Z,6Z)-3-(4-(3-Dimethylaminopropoxy)benzylidene)-6-(4-fluorobenzylidene)-2,5-piperazinedione]

IC50: 4.5 µM
Structure (SMILES): CN(C)CCCOc1ccc(/C=c2\[nH]c(=O)/c(=C/c3cccc(Br)c3)[nH]c2=O)cc1 [Compound 5375, (3Z,6Z)-3-(3-Bromobenzylidene)-6-(4-(3-dimethylaminopropoxy)benzylidene)-2,5-piperazinedione]

More lines, now with the values behind:

Structure (SMILES): COc1ccc(/C=c2\[nH]c(=O)/c(=C/c3ccc(OCCN(C)C)cc3)[nH]c2=O)cc1 [Compound 1911]
inhibition at 6.25 µM [1]: 13% | inhibition at 12.5 µM [2]: 20% | inhibition at 25 µM [3]: 15% | inhibition at 50 µM [4]: 23% | inhibition at 100 µM [5]: 38%

Structure (SMILES): CN(C)CCOc1ccc(/C=c2\[nH]c(=O)/c(=C/c3ccccc3)[nH]c2=O)cc1 [Compound 1924, (3Z,6Z)-3-Benzylidene-6-(4-(2-dimethylaminoethoxy)benzylidene)-2,5-piperazinedione]
Degree of inhibition in PAI chromogenic substrate assay (6.25 μM): 9% | Degree of inhibition in PAI chromogenic substrate assay (12.5 μM): 7% | Degree of inhibition in PAI chromogenic substrate assay (25 μM): 18% | Degree of inhibition in PAI chromogenic substrate assay (50 μM): 38% | Degree of inhibition in PAI chromogenic substrate assay (100 μM): 64%

Structure (SMILES): CN(C)CCCOc1ccc(/C=c2\[nH]c(=O)/c(=C/c3ccc(C(=O)Nc4ccccc4)cc3)[nH]c2=O)cc1 [Compound 5343, 4-((3Z,6Z)-6-(4-(3-Dimethylaminopropoxy)benzylidene)-2,5-dioxo-3-piperazinylidene)methylbenzanilide]
inhibition at 20 µM [6]: 20%

Structure (SMILES): CN(C)CCOc1ccc(/C=c2\[nH]c(=O)/c(=C/c3ccc(F)cc3F)[nH]c2=O)cc1 [Compound 1977, (3Z,6Z)-3-(2,4-Difluorobenzylidene)-6-(4-(2-dimethylaminoethoxy)benzylidene)-2,5-piperazinedione]
inhibition at 6.25 µM [1]: 0% | inhibition at 12.5 µM [2]: 20% | inhibition at 25 µM [3]: 47% | inhibition at 50 µM [4]: 47% | inhibition at 100 µM [5]: 54%

Structure (SMILES): CN(C)CCCOc1ccc(/C=c2\[nH]c(=O)/c(=C/c3ccc(N(C)C)cc3)[nH]c2=O)cc1 [Compound 5068.HCl, (3Z,6Z)-3-(4-Dimethylaminobenzylidene)-6-(4-(3-dimethylaminopropoxy)benzylidene)-2,5-piperazinedione]
inhibition at 20 µM [6]: 81% | inhibition at 50 µM [7]: 76% | inhibition at 100 µM [8]: 75%

Structure (SMILES): CN(C)CCSCc1ccc(/C=c2\[nH]c(=O)/c(=C/c3ccccc3Br)[nH]c2=O)cc1 [Compound 5080.HCl, (3Z,6Z)-3-(2-Bromobenzylidene)-6-(4-(2-Dimethylaminoethylthiomethyl)benzylidene)-2,5-piperazinedione]
inhibition at 20 µM [6]: 10% | inhibition at 50 µM [7]: 48% | inhibition at 100 µM [8]: 62%

Structure (SMILES): CN(C)CCOc1ccc(/C=c2\[nH]c(=O)/c(=C/c3ccccc3)[nH]c2=O)c(OCCN(C)C)c1 [Compound 1969]
inhibition at 6.25 µM [1]: 2% | inhibition at 12.5 µM [2]: 0% | Degree of inhibition in PAI chromogenic substrate assay (25 μM): 6% | Degree of inhibition in PAI chromogenic substrate assay (50 μM): 20% | Degree of inhibition in PAI chromogenic substrate assay (100 μM): 52%

Structure (SMILES): CN(C)CCCOc1ccc(/C=c2\[nH]c(=O)/c(=C/c3ccc(OCCCN(C)C)cc3)[nH]c2=O)cc1 [Compound 1955, (3Z,6Z)-3,6-Di-(4-(3-dimethylaminopropoxy)benzylidene)-2,5-piperazinedionebis hydrogen succinate (1:2)]
Degree of inhibition in PAI chromogenic substrate assay (6.25 μM): 0% | inhibition at 12.5 µM [2]: 2% | inhibition at 25 µM [3]: 3% | inhibition at 50 µM [4]: 2% | inhibition at 100 µM [5]: 9%

Structure (SMILES): CN(C)CCOc1ccc(/C=c2\[nH]c(=O)/c(=C/c3ccccc3)[nH]c2=O)cc1 [Compound 1954, (3Z,6Z)-6-Benzylidene-3-(4-(2-dimethylaminoethoxy)benzylidene)-2,5-piperazinedione]
Degree of inhibition in PAI chromogenic substrate assay (6.25 μM): 37% | Degree of inhibition in PAI chromogenic substrate assay (12.5 μM): 57% | Degree of inhibition in PAI chromogenic substrate assay (25 μM): 67% | Degree of inhibition in PAI chromogenic substrate assay (50 μM): 43% | Degree of inhibition in PAI chromogenic substrate assay (100 μM): 16%

Structure (SMILES): CC(=O)Nc1ccccc1/C=c1\[nH]c(=O)/c(=C/c2ccc(OCCCN(C)C)cc2)[nH]c1=O [Compound 5259]
inhibition at 20 µM [6]: 10%

Structure (SMILES): CN(C)CCOCc1ccc(/C=c2\[nH]c(=O)/c(=C/c3ccccc3Br)[nH]c2=O)cc1 [Compound 5070.HCl, (3Z,6Z)-3-(2-Bromobenzylidene)-6-(4-(2-dimethylaminoethoxymethyl)benzylidene)-2,5-piperazinedione]
inhibition at 20 µM [6]: 6% | inhibition at 50 µM [7]: 6% | inhibition at 100 µM [8]: 40%

Structure (SMILES): COc1ccc(/C=c2\[nH]c(=O)/c(=C/c3ccc(OC(=O)CC(C)(C)C)cc3)[nH]c2=O)cc1 [Compound 1885, (3Z,6Z)-3-(4-(3,3-dimethylbutanoyloxy)benzylidene)-6-(4-methoxybenzylidene)-2,5-piperazinedione]
inhibition at 6.25 µM [1]: 0% | inhibition at 12.5 µM [2]: 0% | inhibition at 25 µM [3]: 2% | inhibition at 50 µM [4]: 31% | inhibition at 100 µM [5]: 54%

Structure (SMILES): CN(C)CCCOc1ccc(/C=c2\[nH]c(=O)/c(=C/c3ccc(C(=O)NCCc4ccccc4)cc3)[nH]c2=O)cc1 [Compound 5345, N-Phenethyl-4-((3Z,6Z)-6-(4-(3-Dimethylaminopropoxy)benzylidene)-2,5-dioxo-3-piperazinylidene)methylbenzamide]
inhibition at 20 µM [6]: 39%

Structure (SMILES): COC(=O)c1ccc(/C=c2\[nH]c(=O)/c(=C/c3ccc(OCCCN(C)C)cc3)[nH]c2=O)cc1 [Compound 5401, Methyl 4((3Z,6Z)-6-(4-(3-Dimethylaminopropoxy)benzylidene)-2,5-dioxo-3-piperazinylidene)methylbenzoate]
inhibition at 20 µM [6]: 42%

Structure (SMILES): CN(C)CCOc1ccc(/C=c2\[nH]c(=O)/c(=C/c3c(Cl)cccc3Cl)[nH]c2=O)cc1 [Compound 1952]
inhibition at 6.25 µM [1]: 0% | Degree of inhibition in PAI chromogenic substrate assay (12.5 μM): 1% | Degree of inhibition in PAI chromogenic substrate assay (25 μM): 19% | inhibition at 50 µM [4]: 37% | inhibition at 100 µM [5]: 63%

Structure (SMILES): CN(C)CCOc1ccc(/C=c2\[nH]c(=O)/c(=C/c3c(Cl)cccc3Cl)[nH]c2=O)cc1 [Compound 1980, (3Z,6Z)-3-(2,6-Dichlorobenzylidene)-6-(4-(2-dimethylaminoethoxy)benzylidene)-2,5-piperazinedione]
Degree of inhibition in PAI chromogenic substrate assay (6.25 μM): 0% | Degree of inhibition in PAI chromogenic substrate assay (12.5 μM): 13% | Degree of inhibition in PAI chromogenic substrate assay (25 μM): 51% | Degree of inhibition in PAI chromogenic substrate assay (50 μM): 41% | Degree of inhibition in PAI chromogenic substrate assay (100 μM): 66%

Structure (SMILES): CN(C)CCCOc1ccc(/C=c2\[nH]c(=O)/c(=C/c3ccc4c(c3)OCO4)[nH]c2=O)cc1 [Compound 5201, (3Z,6Z)-6-(4-(3-Dimethylaminopropoxy)benzylidene)-3-(3,4-methylenedioxybenzylidene)-2,5-piperazinedione]
inhibition at 20 µM [6]: 43% | inhibition at 100 µM [8]: 47% | IC50: 2.5 µM

Source: patent US5902812A, “Pharmaceutical piperazine compounds” (Xenova Limited, priority 1994, dated 1999)
